These molecules were tested against human MDM2 protein (amino acids 2-188) (Homo sapiens (Human), UniProt Q00987) (assay: TR-FRET assay, p53-MDM2 Assay 2 (modified)). Conditions: TR-FRET; 0.1 nM MDM2, 0.1 nM Europium labeled streptavidin, Tecan genios Pro reader; read-out: IC50 p53-MDM2 Assay 2.
Type: binding
Method in brief: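 IC50 values were curve-fitted from the time-resolved 665/620 nm emission ratio after 340 nm excitation. The assay combined 0.625 nM europium-streptavidin donor with 1.25 nM C-terminally biotinylated MDM2 2–188 (15 min, RT), followed by 15 min with 10 nM Cy5-labeled p53 18–26 acceptor peptide.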

Chain of human MDM2 protein (amino acids 2-188) (Q00987 2-188): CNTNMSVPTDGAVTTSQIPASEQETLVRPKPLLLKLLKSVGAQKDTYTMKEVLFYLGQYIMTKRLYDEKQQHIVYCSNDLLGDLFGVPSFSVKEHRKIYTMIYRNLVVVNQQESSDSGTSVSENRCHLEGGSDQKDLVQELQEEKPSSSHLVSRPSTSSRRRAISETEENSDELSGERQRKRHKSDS

Row | Compound | IC50
1 | COc1ccc(CC(=O)N(C)C)cc1-c1cc2c(n1C(C)C)C(c1ccc(Cl)cc1)N(c1cc(Cl)ccc1C)C2=O (stereo not shown) [Example 82, 2-{3-[5-(5-Chloro-2-methyl-phenyl)-6-(4-chloro-phenyl)-1-isopropyl-4-oxo-1,4,5,6-tetrahydro-pyrrolo[3,4-b]pyrrol-2-yl]-4-methoxy-phenyl}-N,N-dimethyl-acetamide] | 0.152 nM
2 | CCOC(=O)Cc1cnc(OC)c(-c2cc3c(n2C(C)C)C(c2ccc(C#N)cc2)N(c2cccc(Cl)c2F)C3=O)c1 (stereo not shown) [Example 83, {5-[5-(3-Chloro-2-fluoro-phenyl)-6-(4-cyano-phenyl)-1-isopropyl-4-oxo-1,4,5,6-tetrahydro-pyrrolo[3,4-b]pyrrol-2-yl]-6-methoxy-pyridin-3-yl}-acetic acid ethyl ester] | 4.16 nM
3 | COc1cnc(CC(=O)O)cc1-c1cc2c(n1C(C)C)C(c1ccc(C#N)cc1)N(c1cccc(Cl)c1F)C2=O (stereo not shown) [Example 84, {4-[5-(3-Chloro-2-fluoro-phenyl)-6-(4-cyano-phenyl)-1-isopropyl-4-oxo-1,4,5,6-tetrahydro-pyrrolo[3,4-b]pyrrol-2-yl]-5-methoxy-pyridin-2-yl}-acetic acid] | 0.482 nM
4 | CNC(=O)Cc1cnc(OC)c(-c2cc3c(n2C(C)C)C(c2ccc(C#N)cc2)N(c2cccc(Cl)c2F)C3=O)c1 (stereo not shown) [Example 85, 2-{5-[5-(3-Chloro-2-fluoro-phenyl)-6-(4-cyano-phenyl)-1-isopropyl-4-oxo-1,4,5,6-tetrahydro-pyrrolo[3,4-b]pyrrol-2-yl]-6-methoxy-pyridin-3-yl}-N-methyl-acetamide] | 3.16 nM
5 | CNC(=O)Cc1cc(-c2cc3c(n2C(C)C)C(c2ccc(C#N)cc2)N(c2cccc(Cl)c2F)C3=O)c(OC)cn1 (stereo not shown) [Example 86, 2-{4-[5-(3-Chloro-2-fluoro-phenyl)-6-(4-cyano-phenyl)-1-isopropyl-4-oxo-1,4,5,6-tetrahydro-pyrrolo[3,4-b]pyrrol-2-yl]-5-methoxy-pyridin-2-yl}-N-methyl-acetamide] | 0.334 nM
6 | COc1cnc(CC#N)cc1-c1cc2c(n1C(C)C)C(c1ccc(C#N)cc1)N(c1cccc(Cl)c1F)C2=O (stereo not shown) [Example 87, 4-[5-(3-Chloro-2-fluoro-phenyl)-2-(2-cyanomethyl-5-methoxy-pyridin-4-yl)-1-isopropyl-4-oxo-1,4,5,6-tetrahydro-pyrrolo[3,4-b]pyrrol-6-yl]-benzonitrile] | 0.359 nM
7 | COc1ncc(CC#N)cc1-c1cc2c(n1C(C)C)C(c1ccc(C#N)cc1)N(c1cccc(Cl)c1F)C2=O (stereo not shown) [Example 88, 4-[5-(3-Chloro-2-fluoro-phenyl)-2-(5-cyanomethyl-2-methoxy-pyridin-3-yl)-1-isopropyl-4-oxo-1,4,5,6-tetrahydro-pyrrolo[3,4-b]pyrrol-6-yl]-benzonitrile] | 1.64 nM
8 | COc1ccc(C(=O)O)cc1-c1cc2c(n1C(C)C)[C@H](c1ccc(Cl)cc1)N(c1cc(Cl)ccc1C)C2=O [Example 89, 3-[(S)-5-(5-Chloro-2-methyl-phenyl)-6-(4-chloro-phenyl)-1-isopropyl-4-oxo-1,4,5,6-tetrahydro-pyrrolo[3,4-b]pyrrol-2-yl]-4-methoxy-benzoic acid] | 0.08 nM
9 | COc1ccc(C(=O)O)cc1-c1cc2c(n1C(C)C)[C@@H](c1ccc(Cl)cc1)N(c1cc(Cl)ccc1C)C2=O [Example 90, 3-[(R)-5-(5-Chloro-2-methyl-phenyl)-6-(4-chloro-phenyl)-1-isopropyl-4-oxo-1,4,5,6-tetrahydro-pyrrolo[3,4-b]pyrrol-2-yl]-4-methoxy-benzoic acid] | 6.21 nM
10 | COc1ccc(CC(=O)O)cc1-c1cc2c(n1C(C)C)[C@H](c1ccc(Cl)cc1)N(c1cc(Cl)ccc1C)C2=O [Example 91, {3-[(S)-5-(5-Chloro-2-methyl-phenyl)-6-(4-chloro-phenyl)-1-isopropyl-4-oxo-1,4,5,6-tetrahydro-pyrrolo[3,4-b]pyrrol-2-yl]-4-methoxy-phenyl}-acetic acid] | 0.061 nM
